Test results reported in patent US9586951B2 (FUJIFILM Corporation, priority 2013, dated 2017).

Target: T1, ATM (Homo sapiens, UniProt Q13315)
T1 construct: detecting phosphorylation of Chk2 in a human non-small cell lung cancer cell line NCI-H460 (ATCC company); host or cells: NCI-H460 human non-small cell lung cancer cells
Experiment: ATM inhibition test (phosphorylation of Chk2 generated by ionizing radiation, AlphaScreen SureFire)
Format: cell-based
Settings: phosphorylated Chk2 in NCI-H460 cells, ionizing radiation 8Gy, 1 hour after test compound treatment; read-out: ATM inhibitory activity
Outline: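 NCI-H460 cells, compound 1 h pre-treatment, 8Gy IR, further 1 h at 37° C in 5% CO2. Read-out: phospho-Chk2 via AlphaScreen SureFire. % inhibition relative to IR-induced signal window (irradiated vs non-irradiated drug-free wells).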

T1 sequence (Q13315 whole entry): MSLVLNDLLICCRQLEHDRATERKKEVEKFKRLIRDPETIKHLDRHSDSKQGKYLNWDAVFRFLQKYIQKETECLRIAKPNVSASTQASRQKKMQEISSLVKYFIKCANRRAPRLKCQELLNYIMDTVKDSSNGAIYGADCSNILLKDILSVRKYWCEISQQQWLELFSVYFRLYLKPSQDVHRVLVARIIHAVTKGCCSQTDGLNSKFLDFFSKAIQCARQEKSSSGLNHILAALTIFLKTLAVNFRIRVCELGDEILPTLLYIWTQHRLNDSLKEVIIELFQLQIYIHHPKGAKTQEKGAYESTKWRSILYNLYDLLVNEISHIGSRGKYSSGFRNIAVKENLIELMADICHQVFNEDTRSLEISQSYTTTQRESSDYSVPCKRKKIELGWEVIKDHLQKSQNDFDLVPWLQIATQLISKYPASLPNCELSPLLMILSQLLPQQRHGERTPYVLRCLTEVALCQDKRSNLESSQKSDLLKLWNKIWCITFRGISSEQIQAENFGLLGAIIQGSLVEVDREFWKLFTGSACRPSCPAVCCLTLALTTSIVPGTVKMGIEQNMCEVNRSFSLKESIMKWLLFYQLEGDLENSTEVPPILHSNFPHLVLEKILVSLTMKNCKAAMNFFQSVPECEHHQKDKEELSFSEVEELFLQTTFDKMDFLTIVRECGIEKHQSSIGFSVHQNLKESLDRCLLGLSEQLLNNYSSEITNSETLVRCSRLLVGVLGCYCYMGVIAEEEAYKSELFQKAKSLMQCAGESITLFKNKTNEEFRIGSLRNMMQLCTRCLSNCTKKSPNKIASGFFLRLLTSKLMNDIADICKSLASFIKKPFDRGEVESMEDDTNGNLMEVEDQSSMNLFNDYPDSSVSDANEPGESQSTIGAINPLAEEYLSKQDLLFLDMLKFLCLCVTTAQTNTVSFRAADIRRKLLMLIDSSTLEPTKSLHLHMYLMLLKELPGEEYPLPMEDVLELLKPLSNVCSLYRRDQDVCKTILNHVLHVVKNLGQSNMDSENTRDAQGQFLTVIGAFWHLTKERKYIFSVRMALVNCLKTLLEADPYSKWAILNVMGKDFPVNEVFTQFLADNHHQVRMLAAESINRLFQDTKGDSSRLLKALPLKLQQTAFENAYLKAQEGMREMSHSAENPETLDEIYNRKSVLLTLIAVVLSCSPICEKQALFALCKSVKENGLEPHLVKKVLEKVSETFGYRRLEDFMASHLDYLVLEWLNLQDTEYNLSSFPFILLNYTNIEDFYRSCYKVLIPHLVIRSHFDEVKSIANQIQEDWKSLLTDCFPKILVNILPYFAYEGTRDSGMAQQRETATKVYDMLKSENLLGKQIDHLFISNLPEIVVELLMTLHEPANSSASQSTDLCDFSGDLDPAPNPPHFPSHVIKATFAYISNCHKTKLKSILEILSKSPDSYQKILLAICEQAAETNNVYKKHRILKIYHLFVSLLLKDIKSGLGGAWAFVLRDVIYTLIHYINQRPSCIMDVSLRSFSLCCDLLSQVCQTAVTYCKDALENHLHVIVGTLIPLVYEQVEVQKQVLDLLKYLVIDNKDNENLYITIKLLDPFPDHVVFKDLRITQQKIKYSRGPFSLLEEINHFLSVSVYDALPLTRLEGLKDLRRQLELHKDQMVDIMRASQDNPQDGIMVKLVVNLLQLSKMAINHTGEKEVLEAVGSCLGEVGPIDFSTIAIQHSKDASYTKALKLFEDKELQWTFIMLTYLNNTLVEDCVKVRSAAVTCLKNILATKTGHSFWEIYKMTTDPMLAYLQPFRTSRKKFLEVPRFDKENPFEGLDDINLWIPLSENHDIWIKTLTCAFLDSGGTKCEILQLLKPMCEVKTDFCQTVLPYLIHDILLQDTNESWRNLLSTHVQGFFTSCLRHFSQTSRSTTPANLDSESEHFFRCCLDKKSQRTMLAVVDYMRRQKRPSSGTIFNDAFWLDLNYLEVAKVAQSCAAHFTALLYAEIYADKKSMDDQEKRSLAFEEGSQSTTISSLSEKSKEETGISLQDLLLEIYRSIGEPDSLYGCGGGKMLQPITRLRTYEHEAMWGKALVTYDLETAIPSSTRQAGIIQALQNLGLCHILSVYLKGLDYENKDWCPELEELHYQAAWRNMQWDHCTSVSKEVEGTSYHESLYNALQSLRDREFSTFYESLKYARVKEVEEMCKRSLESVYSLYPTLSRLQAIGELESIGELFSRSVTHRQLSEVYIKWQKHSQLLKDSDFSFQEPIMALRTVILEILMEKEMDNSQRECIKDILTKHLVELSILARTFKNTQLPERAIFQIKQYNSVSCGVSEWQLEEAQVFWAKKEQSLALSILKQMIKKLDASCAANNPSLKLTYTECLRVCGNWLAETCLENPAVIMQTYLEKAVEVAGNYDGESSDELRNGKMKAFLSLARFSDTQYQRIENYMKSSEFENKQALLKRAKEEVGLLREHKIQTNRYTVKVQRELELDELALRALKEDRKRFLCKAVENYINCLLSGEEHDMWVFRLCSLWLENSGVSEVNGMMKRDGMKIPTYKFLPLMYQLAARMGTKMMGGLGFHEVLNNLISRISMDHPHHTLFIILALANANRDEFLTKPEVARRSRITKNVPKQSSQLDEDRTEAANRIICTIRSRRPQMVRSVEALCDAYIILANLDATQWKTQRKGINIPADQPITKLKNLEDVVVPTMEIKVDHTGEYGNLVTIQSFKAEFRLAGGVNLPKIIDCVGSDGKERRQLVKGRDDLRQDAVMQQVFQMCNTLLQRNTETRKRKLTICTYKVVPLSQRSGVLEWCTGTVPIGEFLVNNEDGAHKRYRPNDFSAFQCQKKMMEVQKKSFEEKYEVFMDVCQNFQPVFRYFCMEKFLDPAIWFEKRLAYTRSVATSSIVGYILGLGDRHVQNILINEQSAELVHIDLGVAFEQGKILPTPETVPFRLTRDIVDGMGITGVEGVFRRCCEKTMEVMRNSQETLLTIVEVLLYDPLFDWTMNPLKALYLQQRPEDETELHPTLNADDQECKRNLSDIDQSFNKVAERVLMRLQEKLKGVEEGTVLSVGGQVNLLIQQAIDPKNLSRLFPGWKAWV

Compound | IC50 [µM]
Cc1cnc(C(CN(C)C)Nc2ccc3c(c2)Sc2cccc(-c4cc(N5CCOCC5)cc(=O)[nH]4)c2S3)cn1 (stereo not shown) [Example 1-32, 6-(7-((2-(dimethylamino)-1-(5-methylpyrazin-2-yl)ethyl)amino)thianthren-1-yl)-4-morpholinopyridin-2(1H)-one] | 0.1 to 0.5
O=c1cc(N2CCOCC2)cc(-c2cccc3c2Oc2ccc(NC4CCN(Cc5cnccn5)CC4)cc2C3)[nH]1 [Example 2-28-7, 4-Morpholino-6-(7-((1-(pyrazin-2-ylmethyl)piperidin-4-yl)amino)-9H-xanthen-4-yl)pyridin-2 (1H)-one] | 0.5 to 2
O=c1cc(N2CCOCC2)cc(-c2cccc3c2Sc2ccc(NC4CCCC4N4CCOCC4)cc2S3)[nH]1 (single isomer, unassigned) [Example 1-16-1-3, 4-morpholino-6-(7-((2-morpholinocyclopentyl)amino)thianthren-1-yl)pyridin-2(1H)-one] | 0.1 to 0.5
CNc1ncccc1CNc1ccc2c(c1)Sc1cccc(-c3cc(N4CCOCC4)cc(=O)[nH]3)c1S2 [Example 1-12-24, 6-(7-(((2-(Methylamino)pyridin-3-yl)methyl)amino)thianthren-1-yl)-4-morpholino pyridin-2(1H)-one] | 0.1 to 0.5
CC(CN1CCNCC1)Nc1ccc2c(c1)Sc1cccc(-c3cc(N4CCOCC4)cc(=O)[nH]3)c1S2 (stereo not shown) [Example 1-14, 4-Morpholino-6-(7-((1-(piperazin-1-yl)propan-2-yl)amino)thianthren-1-yl)pyridin-2(1H)-one] | 0.5 to 2
O=C(Nc1ccc2c(c1)Cc1cccc(-c3cc(N4CCOCC4)cc(=O)[nH]3)c1O2)c1cc(Br)ccn1 [Example 2-24, 4-bromo-N-(5-(4-morpholino-6-oxo-1,6-dihydropyridin-2-yl)-9H-xanthen-2-yl)picolinamide] | 0.5 to 2
CC(=O)Nc1cncc(CNc2ccc3c(c2)Cc2cccc(-c4cc(N5CCOCC5)cc(=O)[nH]4)c2O3)c1 [Example 2-2-13, N-(5-(((5-(4-Morpholino-6-oxo-1,6-dihydropyridin-2-yl)-9H-xanthen-2-yl)amino)methyl)pyridin-3-yl)acetamide] | 0.5 to 2
O=c1cc(N2CCOCC2)cc(-c2cccc3c2Oc2ccc(NCc4cccnc4)cc2CC3)[nH]1 [Example 2-51-2, 4-Morpholino-6-(8-((pyridin-3-ylmethyl)amino)-10,11-dihydrodibenz[b,f]oxepin-4-yl)pyridin-2(1H)-one] | 0.1 to 0.5
COCC(CN1CCOCC1)Nc1ccc2c(c1)Sc1cccc(-c3cc(N4CCOCC4)cc(=O)[nH]3)c1S2 (single isomer, unassigned) [Example 1-17-1-3, 6-(7-((1-methoxy-3-morpholinopropan-2-yl)amino)thianthren-1-yl)-4-morpholinopyridin-2(1H)-one] | 0.1 to 0.5
CC(Nc1ccc2c(c1)Sc1cccc(-c3cc(N4CCOCC4)cc(=O)[nH]3)c1S2)c1ncccn1 (stereo not shown) [Example 1-12-68, 4-Morpholino-6-(7-((1-(pyrimidin-2-yl)ethyl)amino)thianthren-1-yl)pyridin-2 (1H)-one] | 0.1 to 0.5
O=c1cc(N2CCOCC2)cc(-c2nccc3c2Oc2ccc(NCc4cncc(C5CC5)c4)cc2C3)[nH]1 [Example 2-41-11, 6-(7-(((5-Cyclopropylpyridin-3-yl)methyl)amino)-5H-chromeno[2,3-c]pyridin-1-yl)-4-morpholino pyridin-2(1H)-one] | 0.1 to 0.5
COc1ncc(CN2CCC(Nc3ccc4c(c3)Cc3cccc(-c5cc(N6CCOCC6)cc(=O)[nH]5)c3O4)CC2)cn1 [Example 2-28-14, 6-(7-((1-((2-Methoxypyrimidin-5-yl)methyl)piperidin-4-yl)amino)-9H-xanthen-4-yl)-4-morpholino pyridin-2(1H)-one] | 0.1 to 0.5
O=c1cc(N2CCOCC2)cc(-c2cccc3c2Sc2ccc(NC4CCCCC4N4CCOCC4)cc2S3)[nH]1 (stereo not shown) [Example 1-16-2, 4-Morpholino-6-(7-((2-morpholinocyclohexyl)amino)thianthren-1-yl)pyridin-2(1H)-one] | 0.1 to 0.5

Further lines, results first:

IC50 [µM] | Compound
0.1 to 0.5 | CC(Nc1ccc2c(c1)Sc1cccc(-c3cc(N4CCOCC4)cc(=O)[nH]3)c1S2)c1ncc(CO)cn1 (single isomer, unassigned) [Example 1-12-142-2, 6-(7-((1-(5-(hydroxymethyl)pyrimidin-2-yl)ethyl)amino)thianthren-1-yl)-4-morpholinopyridin-2(1H)-one]
0.1 to 0.5 | CN(C)C1CCC(Nc2ccc3c(c2)Sc2cccc(-c4cc(N5CCOCC5)cc(=O)[nH]4)c2S3)CC1 (stereo not shown) [Example 1-36-2, 6-(7-((4-(Dimethylamino)cyclohexyl)amino)thianthren-1-yl)-4-morpholinopyridin-2(1H)-one]
0.1 to 0.5 | CNCC(Nc1ccc2c(c1)Sc1cccc(-c3cc(N4CCOCC4)cc(=O)[nH]3)c1S2)c1cccc(C)n1 (single isomer, unassigned) [Example 1-19-4-1, 6-(7-((2-(Methylamino)-1-(6-methylpyridin-2-yl)ethyl)amino)thianthren-1-yl)-4-morpholinopyridin-2(1H)-one]
0.1 to 0.5 | O=c1cc(N2CCOCC2)cc(-c2cccc3c2Oc2ccc(NC4CCN(Cc5ccc(OC6CCOCC6)nc5)CC4)cc2C3)[nH]1 [Example 2-28-21, 4-Morpholino-6-(7-((1-((6-((tetrahydro-2H-pyran-4-yl)oxy)pyridin-3-yl)methyl)piperidin-4-yl)amino)-9H-xanthen-4-yl)pyridin-2(1H)-one]
0.1 to 0.5 | Cc1ccncc1CNc1ccc2c(c1)Sc1cccc(-c3cc(N4CCOCC4)cc(=O)[nH]3)c1O2 [Example 4-4-19, 6-(8-(((4-Methylpyridin-3-yl)methyl)amino)phenoxathiin-4-yl)-4-morpholino pyridin-2(1H)-one]
0.1 to 0.5 | O=c1cc(N2CCOCC2)cc(-c2cccc3c2Oc2ccc(NCc4ccnc(Cl)c4)cc2S3)[nH]1 [Example 4-8-14, 6-(8-(((2-Chloropyridin-4-yl)methyl)amino)phenoxathiin-4-yl)-4-morpholino pyridin-2(1H)-one]
0.1 to 0.5 | O=c1cc(N2CCOCC2)cc(-c2cccc3c2Oc2ccc(NC4CCN(CCc5ccc(F)cc5)CC4)cc2C3)[nH]1 [Example 2-30-14, 6-(7-((1-(4-Fluorophenethyl)piperidin-4-yl)amino)-9H-xanthen-4-yl)-4-morpholino pyridin-2(1H)-one]
< 0.1 | Cc1cnc(C(CCN(C)CCF)Nc2ccc3c(c2)Sc2cccc(-c4cc(N5CCOCC5)cc(=O)[nH]4)c2S3)cn1 (single isomer, unassigned) [Example 10-3-6, 6-(7-((3-((2-Fluoroethyl) (methyl)amino)-1-(5-methylpyrazin-2-yl)propyl)amino)thianthren-1-yl)-4-morpholino pyridin-2(1H)-onc]
0.1 to 0.5 | CC(C)(C)OC(=O)N1CCC(Nc2ccc3c(c2)Cc2cccc(-c4cc(N5CCOCC5)cc(=O)[nH]4)c2O3)C(F)C1 (stereo not shown) [Example 2-14-1, tert-Butyl 3-fluoro-4-((5-(4-morpholino-6-oxo-1,6-dihydropyridin-2-yl)-9H-xanthen-2-yl)amino) piperidine-1-carboxylate]
< 0.1 | Cc1ccc(C(Nc2ccc3c(c2)Sc2cccc(-c4cc(N5CCOCC5)cc(=O)[nH]4)c2S3)[C@@H]2CN(C)CCO2)nc1 (single isomer, unassigned) [Example 1-56-11]
0.1 to 0.5 | COc1ccc(CCN2CCC(Nc3ccc4c(c3)Cc3ccnc(-c5cc(N6CCOCC6)cc(=O)[nH]5)c3O4)CC2)cc1 [Example 2-41-5, 6-(7-((1-(4-Methoxyphenethyl)piperidin-4-yl)amino)-5H-chromeno[2,3-c]pyridin-1-yl)-4-morpholino pyridin-2(1H)-one]
0.1 to 0.5 | CN1CCC[C@H]1CNc1ccc2c(c1)Sc1cccc(-c3cc(N4CCOCC4)cc(=O)[nH]3)c1S2 [Example 1-3, (S)-6-(7-(((1-methylpyrrolidin-2-yl)methyl)amino)thianthren-1-yl)-4-morpholinopyridin-2(1H)-one]
0.1 to 0.5 | CC(Nc1ccc2c(c1)Sc1cccc(-c3cc(N4CCOCC4)cc(=O)[nH]3)c1S2)c1cccc(CN2CCCCC2)n1 (stereo not shown) [Example 1-12-109, 4-Morpholino-6-(7-((1-(6-(piperidin-1-ylmethyl)pyridin-2-yl)ethyl)amino)thianthren-1-yl)pyridin-2 (1H)-one]
0.1 to 0.5 | CCCC(Nc1ccc2c(c1)Sc1cccc(-c3cc(N4CCOCC4)cc(=O)[nH]3)c1O2)c1cncc(OC)c1 (stereo not shown) [Example 4-4-26, 6-(8-((1-(5-Methoxypyridin-3-yl)butyl)amino)phenoxathiin-4-yl)-4-morpholino pyridin-2(1H)-one]
0.1 to 0.5 | Cc1ccc(C(Nc2ccc3c(c2)Sc2cccc(-c4cc(N5CCOCC5)cc(=O)[nH]4)c2S3)C2CN(C)C2)nc1 (stereo not shown) [Example 1-22-8, 6-(7-(((1-Methylazetidin-3-yl)(5-methylpyridin-2-yl)methyl)amino)thianthren-1-yl)-4-morpholino pyridin-2 (1H)-one]
< 0.1 | Cc1cnc(C(CCN2CCC2)Nc2ccc3c(c2)Sc2cccc(-c4cc(N5CCOCC5)cc(=O)[nH]4)c2S3)cn1 (single isomer, unassigned) [Example 1-51-11, 6-(7-((3-(Azetidin-1-yl)-1-(5-methylpyrazin-2-yl)propyl)amino)thianthren-1-yl)-4-morpholino pyridin-2(1H)-one]
0.1 to 0.5 | Cc1ccccc1CCN1CCC(Nc2ccc3c(c2)Cc2cccc(-c4cc(N5CCOCC5)cc(=O)[nH]4)c2O3)CC1 [Example 2-30-4, 6-(7-((1-(2-Methylphenethyl)piperidin-4-yl)amino)-9H-xanthen-4-yl)-4-morpholino pyridin-2 (1H)-one]
0.1 to 0.5 | O=c1cc(N2CCOCC2)cc(-c2cccc3c2Oc2ccc(NCc4cncc(-n5ccnc5)c4)cc2C3)[nH]1 [Example 2-2-56, 6-(7-(((5-(1H-Imidazol-1-yl)pyridin-3-yl)methyl)amino)-9H-xanthen-4-yl)-4-morpholino pyridin-2 (1H)-one]
